In US9044463B2, “FSH receptor antagonists” (Merck Sharp & Dohme B.V., priority 2011, dated 2015):

molecular target: T1, human FSH receptor (Homo sapiens, UniProt P23945); test: Antagonistic activity at the human FSH receptor expressed in CHO cells (CRE-luciferase reporter); assay type: cell-based; conditions: CHO cells stably transfected with human FSH receptor and CRE-luciferase; with 49 μM recFSH; 4 hours incubation; read-out: IC50 (inhibition of recFSH-induced luciferase stimulation)
T1 construct: expressed in transfected cells; host or cells: CHO (Chinese Hamster Ovary) cells, stably transfected; cotransfected with a CRE-luciferase reporter
T1 sequence (P23945 18-695): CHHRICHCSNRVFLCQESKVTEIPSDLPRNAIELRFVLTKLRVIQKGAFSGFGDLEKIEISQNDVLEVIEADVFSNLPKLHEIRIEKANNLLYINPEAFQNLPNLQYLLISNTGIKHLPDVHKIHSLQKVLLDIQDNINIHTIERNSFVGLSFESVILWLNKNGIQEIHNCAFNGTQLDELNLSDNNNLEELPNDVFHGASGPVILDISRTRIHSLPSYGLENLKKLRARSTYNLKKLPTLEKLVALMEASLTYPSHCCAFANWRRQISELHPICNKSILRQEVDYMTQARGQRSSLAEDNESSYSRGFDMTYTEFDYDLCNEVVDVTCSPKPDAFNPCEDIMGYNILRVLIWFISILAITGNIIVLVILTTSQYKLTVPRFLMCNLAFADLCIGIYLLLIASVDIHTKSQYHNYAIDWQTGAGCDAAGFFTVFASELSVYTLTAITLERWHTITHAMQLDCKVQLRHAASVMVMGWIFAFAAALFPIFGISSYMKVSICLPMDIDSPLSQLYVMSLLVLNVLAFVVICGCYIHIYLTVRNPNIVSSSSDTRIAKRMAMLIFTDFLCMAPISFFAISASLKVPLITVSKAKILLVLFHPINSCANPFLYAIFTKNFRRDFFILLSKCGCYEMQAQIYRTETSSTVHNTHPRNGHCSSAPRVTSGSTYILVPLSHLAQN
Method: Antagonistic Activity of Compounds at the Human FSH Receptor Expressed in CHO Cells
Antagonistic activity of the compounds at the human FSH receptor was determined in Chinese Hamster Ovary (CHO) cells stably transfected with the human FSH receptor and cotransfected to with a cAMP responsive element (CRE)/promoter directing the expression of a firefly luciferase reporter gene. Binding of the compounds to the Gs protein-coupled FSH receptor will result in an increase of cAMP, which in turn will induce an increased transactivation of the luciferase reporter. The cells (7,500 cells/well of a 384 well plate) were incubated in Dulbecco′ minimal essential F12 modified medium (Invitrogen), supplemented with 1 μg/ml bovine insulin, 5 μg/ml human apo-transferrin, 100 U/ml penicillin G and 100 μg/ml streptomycin with the test compounds (concentration between 0.316 nM and 10.0 μM) in duplicate together with […] recFSH (which, at this concentration in the absence of test compound, induces 80% of the maximal luciferase stimulation) in a humidified atmosphere (95%) at 5-7% CO2 and 37° C. The final concentration of DMSO was 1%. After 4 hours of incubation, plates were allowed to adjust to room temperature for 1 hour. Then, SteadyLite (PerkinElmer) solution was added to the wells and cells were allowed to lyse for at least 1 hour at room temperature. Subsequently, luciferase activity was measured in a luminescence counter. The signal is expressed as counts per second (cps). The IC50 (concentration of test compound causing half-maximal (50%) inhibition of the maximally attainable inhibition of the luciferase stimulation by the compound) and efficacy of the compounds were determined using the software program MathIQ (version 2.3, ID Business Solutions Limited).

IC50 [µM]	SMILES
< 0.1	COc1cc2c(c(OC)c1OC)CCc1cc(-c3sccc3C)c(C(=O)N[C@@H](CO)Cc3c[nH]c4ccccc34)cc1-2 [Example 5, N—((R)-1-hydroxy-3-(1H-indol-3-yl)propan-2-yl)-6,7,8-trimethoxy-2-(3-methylthiophen-2-yl)-9,10-dihydrophenanthrene-3-carboxamide]
< 0.1	COCCOc1cc2c(cc1OC)-c1cc(C(=O)N[C@@H](CO)Cc3c[nH]c4ccccc34)c(-c3ccccc3F)cc1OC2 [Example 45, 3-(2-fluorophenyl)-N—((R)-1-hydroxy-3-(1H-indol-3-yl)propan-2-yl)-9-methoxy-8-(2-methoxyethoxy)-6H-benzo[c]chromene-2-carboxamide]
< 0.1	COc1cc2c(c(OC)c1OC)CCc1cc(-c3cccc(F)c3F)c(C(=O)N[C@@H](CO)Cc3c[nH]c4ccccc34)cc1-2 [Example 3, 2-(2,3-difluorophenyl)-N—((R)-1-hydroxy-3-(1H-indol-3-yl)propan-2-yl)-6,7,8-trimethoxy-9,10-dihydrophenanthrene-3-carboxamide]
< 0.1	CCCC(C)Oc1cc2c(cc1C(=O)N[C@@H](CO)Cc1c[nH]c3ccccc13)-c1cc(OC)c(OC)cc1CC2 (stereo partly drawn) [Example 10, N—((R)-1-hydroxy-3-(1H-indol-3-yl)propan-2-yl)-6,7-dimethoxy-2-(pentan-2-yloxy)-9,10-dihydrophenanthrene-3-carboxamide]
< 0.1	COc1cc2c(cc1OC)-c1cc(C(=O)N[C@@H](CO)Cc3c[nH]c4ccccc34)c(-c3c(C)n[nH]c3C)cc1OC2 [Example 38, 3-(3,5-dimethyl-1H-pyrazol-4-yl)-N—((R)-1-hydroxy-3-(1H-indol-3-yl)propan-2-yl)-8,9-dimethoxy-6H-benzo[c]chromene-2-carboxamide]
< 0.1	COc1cc2c(cc1OC)-c1cc(C(=O)N[C@@H](CO)Cc3c[nH]c4ccccc34)c(-c3ccco3)cc1CC2 [Example 24, (R)-2-(furan-2-yl)-N-(1-hydroxy-3-(1H-indol-3-yl)propan-2-yl)-6,7-dimethoxy-9,10-dihydrophenanthrene-3-carboxamide]
0.1 to 1	COc1cc2c(cc1C#N)-c1cc(C(=O)N[C@@H](CO)Cc3c[nH]c4ccccc34)c(OC(C)C)cc1CC2 [Example 33, (R)-6-cyano-N-(1-hydroxy-3-(1H-indol-3-yl)propan-2-yl)-2-isopropoxy-7-methoxy-9,10-dihydrophenanthrene-3-carboxamide]
< 0.1	COc1cc2c(cc1OC)-c1cc(C(=O)N[C@@H](CO)Cc3c[nH]c4ccccc34)c(-c3ccccc3F)cc1CC2 [Example 18, 2-(2-fluorophenyl)-N—((R)-1-hydroxy-3-(1H-indol-3-yl)propan-2-yl)-6,7-dimethoxy-9,10-dihydrophenanthrene-3-carboxamide]
< 0.1	COc1cc2c(cc1OC)-c1cc(C(=O)N[C@@H](CO)Cc3c[nH]c4ccccc34)c(-c3ccncc3F)cc1CC2 [Example 21, 2-(3-fluoropyridin-4-yl)-N—((R)-1-hydroxy-3-(1H-indol-3-yl)propan-2-yl)-6,7-dimethoxy-9,10-dihydrophenanthrene-3-carboxamide]
0.1 to 1	COc1cc2c(cc1O)-c1cc(C(=O)N[C@@H](CO)Cc3c[nH]c4ccccc34)c(-c3ccccc3F)cc1CC2 [Example 31, 2-(2-fluorophenyl)-6-hydroxy-N—((R)-1-hydroxy-3-(1H-indol-3-yl)propan-2-yl)-7-methoxy-9,10-dihydrophenanthrene-3-carboxamide]
< 0.1	COc1cc2c(cc1OC)-c1cc(C(=O)N[C@@H](CO)Cc3c[nH]c4ccccc34)c(-c3ccc(N)cc3F)cc1CC2 [Example 20, 2-(4-amino-2-fluorophenyl)-N—((R)-1-hydroxy-3-(1H-indol-3-yl)propan-2-yl)-6,7-dimethoxy-9,10-dihydrophenanthrene-3-carboxamide]
< 0.1	COc1cc2c(c(OC)c1OC)CCc1cc(OC(C)C)c(C(=O)N[C@@H](CO)Cc3c[nH]c4ccccc34)cc1-2 [Example 7, (R)—N-(1-hydroxy-3-(1H-indol-3-yl)propan-2-yl)-2-isopropoxy-6,7,8-trimethoxy-9,10-dihydrophenanthrene-3-carboxamide]
< 0.1	COc1cc2c(cc1OC)-c1cc(C(=O)N[C@@H](CO)Cc3c[nH]c4ccccc34)c(OC(C)C)cc1CC2 [Example 58, (R)-2-isopropoxy-N-(1-hydroxy-3-(1H-indol-3-yl)propan-2-yl)-6,7-dimethoxy-9,10-dihydrophenanthrene-3-carboxamide]
< 0.1	COc1cc2c(cc1OC)-c1cc(C(=O)N[C@@H](CO)Cc3c[nH]c4ccccc34)c(OC(F)F)cc1CC2 [Example 11, (R)-2-(difluoromethoxy)-N-(1-hydroxy-3-(1H-indol-3-yl)propan-2-yl)-6,7-dimethoxy-9,10-dihydrophenanthrene-3-carboxamide]
< 0.1	O=C(N[C@@H](CO)Cc1c[nH]c2ccccc12)c1cc2c(cc1-c1ccccc1F)OCc1cc3c(cc1-2)OCO3 [Example 55, 3-(2-fluorophenyl)-N—((R)-1-hydroxy-3-(1H-indol-3-yl)propan-2-yl)-8,9-(1′,3′-dioxolo)-6H-benzo[c]chromene-2-carboxamide]
< 0.1	COc1cc2c(cc1OC)-c1cc(C(=O)N[C@@H](CO)Cc3c[nH]c4ccccc34)c(CC(C)C)cc1OC2 [Example 42, (R)—N-(1-hydroxy-3-(1H-indol-3-yl)propan-2-yl)-3-isobutyl-8,9-dimethoxy-6H-benzo[c]chromene-2-carboxamide]
< 0.1	COc1cc2c(c(OC)c1OC)CCc1cc(-c3cccnc3OC)c(C(=O)N[C@@H](CO)Cc3c[nH]c4ccccc34)cc1-2 [Example 6, N—((R)-1-hydroxy-3-(1H-indol-3-yl)propan-2-yl)-6,7,8-trimethoxy-2-(2-methoxypyrdin-3-v)-9,10-dihydrophenanthrene-3-carboxamide]
0.1 to 1	COc1cc2c(cc1OC)-c1cc(C(=O)N[C@@H](CO)Cc3c[nH]c4ccccc34)c(OC(F)C(N)=O)cc1CC2 (stereo partly drawn) [Example 14, 2-(2-amino-1-fluoro-2-oxoethoxy)-N—((R)-1-hydroxy-3-(1H-indol-3-yl)propan-2-yl)-6,7-dimethoxy-9,10-dihydrophenanthrene-3-carboxamide]
< 0.1	COc1cc2c(cc1O)CCc1cc(-c3ccccc3F)c(C(=O)N[C@@H](CO)Cc3c[nH]c4ccccc34)cc1-2 [Example 30, 2-(2-fluorophenyl)-7-hydroxy-N—((R)-1-hydroxy-3-(1H-indol-3-yl)propan-2-yl)-6-methoxy-9,10-dihydrophenanthrene-3-carboxamide]
< 0.1	O=C(N[C@@H](CO)Cc1c[nH]c2ccccc12)c1cc2c(cc1-c1ccccc1F)OCc1cc(C(=O)N3CCOCC3)ccc1-2 [Example 53, 3-(2-fluorophenyl)-N—((R)-1-hydroxy-3-(1H-indol-3-yl)propan-2-yl)-8-(morpholine-4-carbonyl)-6H-benzo[c]chromene-2-carboxamide]
< 0.1	COc1cccc(-c2cc3c(cc2C(=O)N[C@@H](CO)Cc2c[nH]c4ccccc24)-c2cc(OC)c(OC)cc2CC3)c1 [Example 25, (R)—N-(1-hydroxy-3-(1H-indol-3-v)propan-2-v)-6,7-dimethoxy-2-(3-methoxyphenyl)-9,10-dihydrophenanthrene-3-carboxamide]
< 0.1	COc1cc2c(cc1OC)-c1cc(C(=O)N[C@@H](CO)Cc3c[nH]c4ccccc34)c(OC(C)C)cc1OC2 [Example 34, (R)—N-(1-hydroxy-3-(1H-indol-3-yl)propan-2-yl)-3-isopropoxy-8,9-dimethoxy-6H-benzo[c]chromene-2-carboxamide]
0.1 to 1	COc1cc2c(cc1OC)-c1cc(C(=O)N[C@@H](CO)Cc3c[nH]c4ccccc34)c(-c3cccc(C(N)=O)c3)cc1CC2 [Example 26, (R)-2-(3-carbamoylphenyl)-N-(1-hydroxy-3-(1H-indol-3-yl)propan-2-yl)-6,7-dimethoxy-9,10-dihydrophenanthrene-3-carboxamide]
